Test results as given in patent US10914725B2, “Culture medium additive, culture medium composition, and method for culturing cells or tissue using same” (NISSAN CHEMICAL INDUSTRIES, LTD., priority 2015, dated 2021).

Tested on: adenocarcinomic human alveolar basal epithelial cell line A549
Assay: High content analysis of anti-cancer agent by cell image analysis (Experimental Example 5)
Type: cell-based
Conditions: 0.03 (w/v)% low-molecular agar medium; for average cell number per sphere / number of average spheres per 10 mm^2 / projected area: 10 days
Description: By a method similar to the preparation method of medium composition in Analysis Example 1, a medium composition containing 10 (v/v) % FBS, and 0.03 (w/v) % of low-molecular agar or agar for general use in DMEM (manufactured by Wako Pure Chemical Industries, Ltd.) was prepared. Paclitaxel (manufactured by Wako Pure Chemical Industries, Ltd.) was further added to a final concentration of 0.001 μM, 0.01 μM or 0.1 μM. Successively, adenocarcinomic human alveolar basal epithelial cell line A549 (manufactured by DS PHARMA BIOMEDICAL CO., LTD.) was seeded in the above-mentioned medium composition containing low-molecular agar at 5,000 cells/mL, and dispensed to the wells of a 96 well flat bottom ultra-low attachment surface microplate (manufactured by Corning Incorporated, #3474) at 100 μL per 1 well. Successively, the plate was cultured in a standing state in a CO2 incubator (37° C., 5% CO2) for 10 days.
Then, a solution of […] of Hoechst 33342 (manufactured by Invitrogen) in DMEM (phenol red, L-glutamine free) (manufactured by Wako Pure Chemical Industries, Ltd.) was prepared, and added, at 10 μL per 1 well, to the above-mentioned culture after static culture for 10 days, and the mixture was stood in a CO2 incubator (37° C., 5% CO2) for 45 min. Successively, a solution of 20 μg/mL Propidium Iodide (manufactured by BIOMOL) in DMEM (phenol red, L-glutamine free) (manufactured by Wako Pure Chemical Industries, Ltd.) was prepared and added at 10 μL per 1 well. The plate was centrifuged at 1,500 rpm for 10 min, and high content analysis was performed by cell image analysis using a cell imaging apparatus (“ArrayScan VTI HCS Reader”, manufactured by Thermo Fisher Scientific). At that time, observation was performed with 10 fields of view per well using a ×4 objective lens, cell outline and cell nucleus were detected from Hoechst33342 fluorescence image, and dead cells were detected from propidium iodide fluorescence image. In addition, 50% inhibitory concentration (nM) of paclitaxel by high content analysis was calculated with the number of constituent cells when the anticancer agent was added at the maximum concentration as 100% inhibition rate of sphere formation.
The observed images (area per 1 field: 1 mm^2) of A549 cells cultured for 10 days in the medium composition of the present invention containing low-molecular agar, negative control and comparison control (medium composition containing deacylated gellan gum) by a cell imaging apparatus are shown in FIG. 8. In addition, number of constituent cells of A549 cell spheres (average cell number per sphere), sphere number (average sphere number per 10 mm^2), projected area of sphere (size) (μm^2), obtained from the cell imaging analysis, are shown in Table 12. As for the negative control and comparison control, the relative cell number when the amount of luminescence without addition of the anticancer agent is 1 was determined from the measurement results of the surviving cell number using the intracellular ATP as an index, and shown in Table 13. Furthermore, the 50% inhibitory concentration (nM) of paclitaxel calculated from the amount of luminescence based on intracellular ATP and high content analysis are shown in Table 14.

CC(=O)O[C@H]1C(=O)[C@@]2(C)[C@H]([C@H](OC(=O)c3ccccc3)[C@]3(O)C[C@H](OC(=O)[C@H](O)[C@@H](NC(=O)c4ccccc4)c4ccccc4)C(C)=C1C3(C)C)[C@]1(OC(C)=O)CO[C@@H]1C[C@@H]2O [paclitaxel, Paclitaxel]
IC50 (Homo sapiens, A549, high content analysis by cell image analysis, number of constituent cells, read-out: paclitaxel 50% inhibitory concentration): 1.9 nM
average cell number per sphere (paclitaxel 0.001 μM): 5.353
number of average spheres per 10 mm^2 (paclitaxel 0.001 μM): 39.33
projected area (paclitaxel 0.001 μM): 1161 μm^2
average cell number per sphere (paclitaxel 0.01 μM): 1.52
number of average spheres per 10 mm^2 (paclitaxel 0.01 μM): 18
projected area (paclitaxel 0.01 μM): 578 μm^2
average cell number per sphere (paclitaxel 0.1 μM): 1.165
number of average spheres per 10 mm^2 (paclitaxel 0.1 μM): 6.333
projected area (paclitaxel 0.1 μM): 402 μm^2
